# EP0061654A1, “Vincamine cyclamate, process for its preparation and medicaments containing it” (Heinrich Mack Nachf., priority 1981, dated 1982)
# Like-named read-outs stand apart in the source and are kept apart here.
# What was measured:
# [1] = in Wasser und anderen pharmazeutisch annehmbaren Lösungsmitteln; cited from earlier work
# [2] = Solubility in pharmaceutically acceptable solvents; type: physicochemical; details: in Wasser, Glycerin/Ethanol-Gemischen oder Ethanol/Wasser-Gemischen
Löslichkeit [2],Molecule,Löslichkeit [1]
,"CCC12CCCN3CCc4c(n(c5ccccc45)C(O)(C(=O)OC)C1)C32 (centres unmarked) [Vincamin-Base, Vincamin]",praktisch unlöslich
ausreichend löslich,Vincamin-cyclamat,
